Test results published in US6200999A, “3-Alkoxyisoxazol-4-yl-substituted 2-amino carboxylic acid compounds” (H. Lundbeck A/S, priority 1996, dated 2001).
Structures can show the parent of a compound that is named as a salt.

Assays:
[1] = tested on: AMPA receptors; details: literature; cited from earlier work
[2] = literature; cited from earlier work
[3] = tested on: animals; details: literature; cited from earlier work
[4] = tested on: AMPA receptor; assay: Cortical wedge model, AMPA receptor (rat brain slices in vitro); format: cell-based; details: receptor subtype AMPA; for EC50: agonists
Procedure: (§1) The Cortical wedge model is a test in which slices of rat brain is examined in vitro in order to quantify the effect of ligands at the various Glu-receptors and evaluate the pharmacological profile of the ligands (i.e. agonist/antagonist properties). The test was performed as described by Harrison, N. L. and Simmonds, M. A. Br.J.Pharmacol. 1985, 84, 381-391 as modified according to Wheatley, P. L. Br.J.Pharmacol. 1986, 87, 159P.

[5] = tested on: NMDA receptor; assay: Cortical wedge model, NMDA receptor (rat brain slices in vitro); format: cell-based; details: receptor subtype NMDA; for pKi: antagonist
Procedure: as §1

Row | Compound | Profile [4] | EC50 [4] [µM] | further results
1 | Cc1onc(C(=O)O)c1CC(N)C(=O)O (racemic) [ACPA] |  |  | agonist effects at AMPA receptors [1]: potent AMPA receptor agonist
2 | Cc1onc(O)c1CC(N)C(=O)O (racemic) [AMPA, (RS)-2-amino-3-(3-hydroxy-5-methylisoxazol-4-yl)propionic acid] |  |  | agonist effects at AMPA receptors [1]: selective agonist effects at AMPA receptors
3 | NC(Cc1c(O)noc1-c1ccccc1)C(=O)O (racemic) [APPA, (RS)-2-Amino-3-(3-hydroxy-5-phenylisoxazol-4-yl)propionic acid] |  |  | agonist effects at AMPA receptors [1]: weak but unique partial agonist profile
4 | CC(C)(C)c1onc(O)c1CC(N)C(=O)O (racemic) [ATPA] |  |  | systemic activity [2]: systemically active; neurotoxic effects [3]: has not been reported to show neurotoxic effects in animals
5 | COc1noc(C(=O)O)c1CC(N)C(=O)O.O (racemic) [Compound 1, (RS)-2-Amino-3-(5-carboxy-3-methoxyisoxazol-4-yl)propionic Acid Hydrate] | Agonist | 1.2 | 
6 | CCOc1noc(C(=O)O)c1CC(N)C(=O)O (racemic) [Compound 2, (RS)-2-Amino-3-(5-carboxy-3-ethoxyisoxazol-4-yl)propionic Acid] | Agonist | 4.8 | 
7 | CC(C)Oc1noc(C(=O)O)c1CC(N)C(=O)O (racemic) [Compound 3, (RS)-2-Amino-3-(5-carboxy-3-isopropoxyisoxazol-4-yl)propionic Acid] | Agonist | 40 | 
8 | CCCCOc1noc(C(=O)O)c1CC(N)C(=O)O (racemic) [Compound 11, (RS)-2-Amino-3-(3-butoxy-5-carboxisoxazol-4-yl)propionic Acid] | Part. Agonist | 325 | 
9 | NC(Cc1c(C(=O)O)on(Cc2ccccc2)c1=O)C(=O)O (racemic) [Compound 13, (RS)-2-Amino-3-(2-benzyl-5-carboxy-2,3-dihydro-3oxisoxazol-4-yl)propionic Acid, Hydrochloride, Monohydrate] |  |  | Profile [5]: Antagonist; pKi [5]: 3.5
10 | CCOc1noc(C(=O)O)c1C[C@@H](N)C(=O)O [(R)-2, (R)-2-Amino-3-(5-carboxy-3-ethoxyisoxazol-4-yl)propionic Acid] | Antagonist |  | pKi ([4]; antagonist): 3.28
11 | CCOc1noc(C(=O)O)c1C[C@H](N)C(=O)O [(S)-2, (S)-2-Amino-3-(5-carboxy-3-ethoxyisoxazol-4-yl)propionic Acid] | Agonist | 4.4 | 
12 | CCOc1noc(C(=O)O)c1CNc1c(N)c(=O)c1=O [Compound 17, [4-(2-Amino-3,4-dioxocyclobut-1-en-1-yl)aminomethyl]-3-ethoxyisoxazole-5-carboxylic Acid] |  |  | Profile [5]: Antagonist; pKi [5]: 3.3

Second part, led by results:

Row | Profile [4] | EC50 [4] [µM] | Compound | further results
13 | Agonist | 2000 | CCOc1noc(-c2nnn[nH]2)c1CC(N)C(=O)O (racemic) [Compound 8, (RS)-2-Amino-3-[3-ethoxy-5-(5-tetrazolyl)isoxazol-4-yl]propionic acid] | 
14 | Agonist | 80 | CCCOc1noc(C(=O)O)c1CC(N)C(=O)O (racemic) [Compound 10, (RS)-2-Amino-3-(3-propoxy-5-carboxyisoxazol-4-yl)propionic Acid] | 
15 | Agonist | 40 | C=CCOc1noc(C(=O)O)c1CC(N)C(=O)O (racemic) [Compound 12, (RS)-2-Amino-3-(3-allyloxy-5-carboxyisoxazol-4-yl)propionic Acid] | 
